This note sets out measurements from patent publication US11498920B2, “4-(1H-imidazol-5-yl)-1H-pyrrolo[2, 3-b] pyridines for use in the treatment of leukaemias, lymphomas and solid tumors” (MASARYKOVA UNIVERZITA, priority 2018, dated 2022).

What all share (format): cell-based
Assay [1] deals with Maver-1 cells (mantle cell lymphoma). Briefly: Cytotoxicity, TMRE flow cytometry viability, Maver-1 cells (Example II.1). To be noted: Homo sapiens, Maver1, 24 hours, TMRE positive cells normalized to control, ratio to PF670462, <1 = higher cytotoxicity than PF670462, read-out: Viability of cells, Compound of formula I (100 μM), relative to PF670462 (100 μM), Maver-1 cells (mantle cell lymphoma).

A further assay concerns Nalm16. Briefly: Cytotoxicity on panel of cell lines, TMRE viability (Example II.2). To be noted: 24 hours, mean, control = 1, read-out: cell viability relative to control, Nalm16 (ALL). The method, then: (§1) The leukemia and lymphoma-derived cell lines [MEC-1 cell line (derived from chronic lymphocytic leukemia—CLL), Nalm-16 (acute lymphocytic leukemia—ALL), K562 (chronic myeloid leukemia—CML), HL-60 (acute myeloid leukemia—AML), Maver-1 and Mino (mantle cell lymphoma—MCL), BL-41 (Burkitt lymphoma—BL), WSU-NHL (follicular lymphoma—FL), SUDHL (diffuse large B-cell lymphoma—DLBCL)], primary CLL cells and nonmalignant control primary cells were cultured in suspension in flasks under the following conditions: RPMI 1640 medium (Hyclone) supplemented with 10% fetal bovine serum (FBS, Gibco) and 1% penicillin/streptomycin (Life Technologies), 37° C., 5% CO2 and 95% relative humidity, with optimal culture cell density 5×10^6 cells/mL in case of primary cells and 0.5-1×10^6 cells/mL in case of cell lines. The adherent cell lines [A375 (derived from malignant melanoma), MDA-MB-231 and MCF-7 (breast cancer), MIA-PA-CA and PANC1 (pancreatic cancer), PC3 (prostate cancer), OVCAR4 (ovarian cancer) and HEPG2 (hepatocellular carcinoma)] were cultured on plates under the same conditions using RPMI1640 or DMEM medium (Gibco) according to instructions provided by the distributor (DSMZ/ATCC).
(§2) The tested cell lines were incubated with inhibitors at 30 μM concentration or corresponding amount of solvent (DMSO, Sigma Aldrich) in standard culture conditions, seeded as 10^5 cells/500 μl per well in a 24-well plate. Experiments were performed in technical duplicates and 2-3 biological repetitions per cell line. Viability of cells was assessed after 24 hours.
(§3) Relative values are presented as a mean value, showing ratio to the effect of control. Relative value <1=lower viability than control condition.

The test system of another assay is MDA-MB-231. The assay is described as above. The note with it: Homo sapiens, 24 hours, mean, control = 1, read-out: cell viability relative to control, MDA-MB-231 (breast cancer). The method, then:
as §1, §2, §3

The test system of another assay is MIA-PA-CA. Described as above. To be noted: Homo sapiens, MIA PaCa-2, 24 hours, mean, control = 1, read-out: cell viability relative to control, MIA-PA-CA (pancreatic cancer). The procedure: as §1, §2, §3
A further assay concerns HEPG2. The assay is described as above. The note with it: Homo sapiens, 24 hours, mean, control = 1, read-out: cell viability relative to control, HEPG2 (hepatocellular carcinoma). The procedure:
as §1, §2, §3

The test system of the next assay is MEC-1. The assay is described as above. The note with it: Homo sapiens, MEC1, 24 hours, mean, control = 1, read-out: cell viability relative to control, MEC-1 (CLL). The procedure:
as §1, §2, §3

The subject of a further assay is Mino. The assay is described as above. The note with it: Homo sapiens, 24 hours, mean, control = 1, read-out: cell viability relative to control, Mino (MCL). The method, then:
as §1, §2, §3

In the next assay the test system is K562. The description is as above. The note with it: Homo sapiens, 24 hours, mean, control = 1, read-out: cell viability relative to control, K562 (CML). The method, then: as §1, §2, §3
For a further assay, the system named is SUDHL. The description is as above. To be noted: 24 hours, mean, control = 1, read-out: cell viability relative to control, SUDHL (DLBCL). The method, then:
as §1, §2, §3

A further assay deals with BL-41. The assay is described as above. The note with it: Homo sapiens, 24 hours, mean, control = 1, read-out: cell viability relative to control, BL-41 (BL). The procedure:
as §1, §2, §3

The subject of the next assay is A375. The description is as above. The note with it: Homo sapiens, A-375, 24 hours, mean, control = 1, read-out: cell viability relative to control, A375 (melanoma). The method, then:
as §1, §2, §3

Another assay has as its system Maver1. The description is as above. The note with it: Homo sapiens, 24 hours, mean, control = 1, read-out: cell viability relative to control, Maver1 (MCL). The method, then: as §1, §2, §3
A further assay deals with PC3. The assay is described as above. To be noted: Homo sapiens, PC-3, 24 hours, mean, control = 1, read-out: cell viability relative to control, PC3 (prostate cancer). The method, then: as §1, §2, §3
The next assay has as its system PANC1. Described as above. The note with it: Homo sapiens, PANC-1, 24 hours, mean, control = 1, read-out: cell viability relative to control, PANC1 (pancreatic cancer). The method, then:
as §1, §2, §3

Another assay has as its system HL60. The assay is described as above. The note with it: Homo sapiens, HL-60, 24 hours, mean, control = 1, read-out: cell viability relative to control, HL60 (AML). The procedure: as §1, §2, §3
In the next assay the test system is OVCAR4. The assay is described as above. To be noted: Homo sapiens, OVCAR-4, 24 hours, mean, control = 1, read-out: cell viability relative to control, OVCAR4 (ovarian cancer). The method, then: as §1, §2, §3
A further assay concerns MCF-7. Described as above. To be noted: Homo sapiens, MCF7, 24 hours, mean, control = 1, read-out: cell viability relative to control, MCF-7 (breast cancer). The method, then:
as §1, §2, §3

A further assay deals with primary CLL. The assay is described as above. To be noted: Homo sapiens, 24 hours, mean, control = 1, read-out: cell viability relative to control, primary CLL. The procedure: as §1, §2, §3
A further assay has as its system primary CLL cells. Briefly: Cytotoxicity, TMRE flow cytometry viability, primary CLL cells (Example II.1). To be noted: Homo sapiens, CLL cell, 6 hours, TMRE positive cells normalized to control, ratio to PF670462, <1 = higher cytotoxicity than PF670462, read-out: Viability of cells, Compound of formula I (100 μM), relative to PF670462 (100 μM), CLL primary cells. (A flow cytometer gives signals particle by particle.)

A further assay deals with WSU-NHL. Briefly: Cytotoxicity on panel of cell lines, TMRE viability (Example II.2). The note with it: Homo sapiens, 24 hours, mean, control = 1, read-out: cell viability relative to control, WSU-NHL (FL). The procedure:
as §1, §2, §3

As usually defined, the viability is a read-out of living cells in per cent, often relative to untreated cells. With `Cc1nc(-c2ccc(F)cc2)c(-c2ccnc3[nH]ccc23)n1C1CCCCC1` [Preparative Example 61, 4-(1-cyclohexyl-4-(4-fluorophenyl)-2-methyl-1H-imidazol-5-yl)-1H-pyrrolo[2,3-b]pyridine], the viability at 100 µM in assay [1] turned out to be 2%; in the assay on primary CLL cells it was 35%. Also, the viability at 30 µM in the assay with Nalm16 was 6%; with MDA-MB-231, 46%; in the assay with MIA-PA-CA, 58%; in the assay with HEPG2 it was 60%; with MEC-1 it was 41%; in the assay with Mino it was 28%. Besides, the viability at 30 µM in the assay with K562 was determined as 80%; in the assay on SUDHL, 24%; in the assay with BL-41, 22%; in the assay on A375, 20%; in the assay on Maver1, 52%; in the assay with PC3, 71%. Moreover, the viability at 30 µM worked out at 81% in the assay with PANC1; 63% in the assay on HL60; 77% with OVCAR4; 39% in the assay with MCF-7; 70% in the assay with primary CLL.

For `Fc1ccc(-c2nc(I)n(C3CCCCC3)c2-c2ccnc3[nH]ccc23)cc1` [Preparative Example 95, 4-(1-cyclohexyl-4-(4-fluorophenyl)-2-iodo-1H-imidazol-5-yl)-1H-pyrrolo[2,3-b]pyridine], the viability at 100 µM in assay [1] amounted to 1%; with primary CLL cells it was 2%. The viability at 30 µM in the assay with MDA-MB-231 amounted to 2%; with MIA-PA-CA, 1%; with HEPG2, 5%; in the assay with MEC-1 it was 0%; in the assay with Mino, 0%; in the assay with K562, 1%. The viability at 30 µM with SUDHL was 0%; in the assay with BL-41 it was 0%; with A375, 16%; with Maver1 it was 1%; in the assay on PC3 it was 1%; with PANC1, 10%. Moreover, the viability at 30 µM with WSU-NHL is 0%; in the assay on HL60 it was 2%; with OVCAR4 it was 7%; in the assay on MCF-7, 1%; in the assay on primary CLL, 2%.

As for `Fc1ccc(-c2ncn(Cc3ccccc3)c2-c2ccnc3[nH]ccc23)cc1Cl` [Preparative Example 140, 4-(1-benzyl-4-(3-chloro-4-fluorophenyl)-1H-imidazol-5-yl)-1H-pyrrolo[2,3-b]pyridine], the viability at 100 µM in assay [1] came to 0%; in the assay on primary CLL cells, 1%. Also, the viability at 30 µM worked out at 86% with MDA-MB-231; 29% in the assay on MIA-PA-CA; 22% with HEPG2; 67% in the assay on MEC-1; 3% in the assay with Mino; 11% with SUDHL. Also, the viability at 30 µM in the assay with BL-41 was 44%; in the assay with A375, 80%; in the assay on Maver1 it was 7%; in the assay with PC3, 67%; in the assay on PANC1, 77%; with WSU-NHL, 56%. The viability at 30 µM with HL60 worked out at 78%; with OVCAR4 it was 87%; in the assay with MCF-7, 43%; in the assay on primary CLL, 60%.
